Counter-ions that a name gives are not always drawn.
Key:
[1] = Evaluation of drug sorption (drug residual rate); type: physicochemical; conditions: 10 μmol/L drug solution, 0.5 ml per well, 23° C., 2 days; average of three wells
Experimental: Thereafter, the drug solutions were recovered. The concentrations of the recovered drug solutions were measured by a fluorescence analysis method or LC/MS. The drug residual rate, which was the concentration of the measured recovered drug solution with respect to the concentration of the drug solution before added to the vessel, was calculated. The average value of the drug residual rate in three wells was given. For the drugs 1 to 3 for evaluation, concentration analysis was performed by a fluorescence analysis method.

[2] = Evaluation of drug sorption (drug residual rate); type: physicochemical; conditions: 10 μmol/L drug solution, 0.5 ml per well, 23° C., 2 days; average of three wells; remark: listed apart in the source
Experimental: Thereafter, the drug solutions were recovered. The concentrations of the recovered drug solutions were measured by a fluorescence analysis method or LC/MS. The drug residual rate, which was the concentration of the measured recovered drug solution with respect to the concentration of the drug solution before added to the vessel, was calculated. The average value of the drug residual rate in three wells was given. For the drugs 1 to 3 for evaluation, concentration analysis was performed by a fluorescence analysis method. For the drugs 4 to 8 for evaluation, concentration analysis was performed by LC/MS. <Fluorescence Analysis Conditions> • Evaluation apparatus: FP-6600 (spectrofluorometer, manufactured by JASCO Corporation) • Used cell: Micro cell made of quartz • Bandwidth: excitation side: 5 nm, fluorescence side: 6 nm • Sensitivity (PMT voltage): 400 V • Excitation wavelength: rhodamine B 555 nm <LC/MS Conditions> • Apparatus: Acquity UPLC I-class system/TQ-S micro(water) • Ionization method: electrospray ionization (ESI), positive and negative ion detection A drug sorption test was performed on the 24-well TCPS culture vessel (manufactured by Corning Incorporated, made of polystyrene (PS)) used in Comparative Example 4 and the 24-well PDMS culture vessel (product name: […] (trademark) model number: […]

Row | drug residual rate, 4-methyl-1-pentene Polymer Vessel (Example 11) [1] | drug residual rate, PDMS Vessel (Comparative Example 8) [2] | drug residual rate, PS Vessel (Comparative Example 7) [2] | Molecule
1 | 64% | 1% | 67% | Clc1ccccc1CN1CCc2sccc2C1 [Ticlopidine Hydrochloride, ticlopidine hydrochloride]
2 | 68% | 2% | 70% | Cc1oncc1C(=O)Nc1ccc(C(F)(F)F)cc1 [Leflunomide, leflunomide]
3 | 98% | 2% | 90% | CCN(CC)c1ccc2c(-c3ccccc3C(=O)O)c3ccc(=[N+](CC)CC)cc-3oc2c1.[Cl-] [Rhodamine B, rhodamine B]
4 | 99% | 58% | 79% | rhodamine 123
5 | 63% | 1% | 65% | CC(C)NCC(O)c1ccc(O)c(O)c1 (stereo not drawn) [Isoproterenol Hydrochloride, isoproterenol hydrochloride]

Reference: patent US11254904B2, “Culture material and use thereof” (MITSUI CHEMICALS, INC., priority 2019, dated 2022)
